Source: patent publication US20160106743A1, “TOPOISOMERASE II POISONS AND METHODS OF MAKING AND USING SAME” (THE UNIVERSITY OF ROCHESTER, priority 2014, published 2016)
Entries after “also recorded” stand apart in the source; their conditions may differ.

Columns and labels:
puc118-based plasmid DNA = test: Topoisomerase I (Top1) DNA unwinding assay for intercalation; conditions: 15 min at 25° C., then 1 h with added Top1, FIG. 2
Description: Samples were resolved by electrophoresis through 1% agarose 1×TAE gel and species *, **, and *** quantitated by densitometry (FIG. 2). Top1 alone (Lane 2) converts the DNA to a relaxed form (**) and some residual intermediate relaxed species (***).

Human Top2-α = biological target: T1, Human Top2-α (Homo sapiens, UniProt P11388); test: Human Top2-α decatenation of kinetoplastid DNA (gel electrophoresis, densitometry); type: biochemical; conditions: increasing concentrations of Compound 1, 37° C. for 15 min, FIG. 1
T1 construct: purchased Topogen, Inc; Port Orange Fla
T1 sequence (P11388 whole entry): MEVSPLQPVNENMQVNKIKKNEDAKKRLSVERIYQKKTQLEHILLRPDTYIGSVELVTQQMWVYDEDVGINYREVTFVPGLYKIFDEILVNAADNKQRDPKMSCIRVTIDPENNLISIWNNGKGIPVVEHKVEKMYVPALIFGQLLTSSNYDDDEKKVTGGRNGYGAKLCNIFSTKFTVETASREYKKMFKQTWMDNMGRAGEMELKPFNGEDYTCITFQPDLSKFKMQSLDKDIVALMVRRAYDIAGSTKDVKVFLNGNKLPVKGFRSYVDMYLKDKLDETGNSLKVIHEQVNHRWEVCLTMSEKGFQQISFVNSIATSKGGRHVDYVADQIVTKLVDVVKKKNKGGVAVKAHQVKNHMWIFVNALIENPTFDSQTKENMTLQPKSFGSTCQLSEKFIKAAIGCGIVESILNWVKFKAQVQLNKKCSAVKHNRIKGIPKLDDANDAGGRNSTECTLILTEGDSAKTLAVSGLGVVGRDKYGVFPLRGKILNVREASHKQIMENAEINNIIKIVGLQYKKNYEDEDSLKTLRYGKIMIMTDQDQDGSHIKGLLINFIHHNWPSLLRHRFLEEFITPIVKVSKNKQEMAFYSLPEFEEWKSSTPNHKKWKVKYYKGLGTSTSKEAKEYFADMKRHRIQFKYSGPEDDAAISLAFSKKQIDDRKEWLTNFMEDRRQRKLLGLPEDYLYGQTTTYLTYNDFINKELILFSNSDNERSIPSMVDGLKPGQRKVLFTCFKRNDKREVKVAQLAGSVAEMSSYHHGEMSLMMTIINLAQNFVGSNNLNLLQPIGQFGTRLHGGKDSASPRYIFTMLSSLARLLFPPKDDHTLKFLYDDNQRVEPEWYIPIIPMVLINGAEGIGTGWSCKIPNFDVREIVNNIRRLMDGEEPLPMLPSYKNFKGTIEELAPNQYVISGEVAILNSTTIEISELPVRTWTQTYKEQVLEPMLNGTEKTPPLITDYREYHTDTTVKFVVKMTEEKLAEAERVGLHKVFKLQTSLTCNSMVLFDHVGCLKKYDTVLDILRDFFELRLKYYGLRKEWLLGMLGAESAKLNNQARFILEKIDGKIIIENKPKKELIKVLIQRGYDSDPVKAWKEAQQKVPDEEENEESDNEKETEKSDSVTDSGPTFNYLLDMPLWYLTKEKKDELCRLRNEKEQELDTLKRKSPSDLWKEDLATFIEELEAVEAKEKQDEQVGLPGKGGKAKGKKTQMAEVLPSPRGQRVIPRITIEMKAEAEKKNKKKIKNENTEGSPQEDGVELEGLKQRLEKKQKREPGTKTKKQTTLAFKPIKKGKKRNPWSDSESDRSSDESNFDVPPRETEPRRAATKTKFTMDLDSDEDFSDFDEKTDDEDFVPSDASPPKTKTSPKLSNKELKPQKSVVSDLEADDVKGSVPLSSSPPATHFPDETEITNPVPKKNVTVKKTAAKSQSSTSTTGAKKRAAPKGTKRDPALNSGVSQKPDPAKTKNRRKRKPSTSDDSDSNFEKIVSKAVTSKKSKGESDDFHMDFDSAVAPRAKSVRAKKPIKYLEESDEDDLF
Description: Human Top2-α decatenation of kinetoplastid DNA (kDNA) was visualized by gel electrophoresis. Human Top2-α (Topogen, Inc; Port Orange Fla.) was added to 0.2 μg of kDNA in the presence of 1% DMSO (vehicle control) without or with increasing concentrations of Compound 1. Reactions were incubated at 37° C. for 15 min and terminated by addition of an SDS buffer. Samples were resolved by 1% agarose 1×TAE gel electrophoresis and stained with ethidium bromide. Decatenated versus intact kDNA species were quantified by densitometry (FIG. 1).

[1] = tested on: Saccharomyces cerevisiae strain BY4741 carrying an empty vector; test: Yeast dilution growth on agar media, cells carrying an empty vector; type: cell-based; conditions: Compound 1 10 μM in 0.1% DMSO, growth recorded after 48 h, FIG. 3
Description: (§1) Three-fold dilutions of Saccharomyces cerevisiae strain BY4741 overexpressing yeast TOP1, TOP2, or TOP3 from plasmid vectors were plated on agar media containing either 0.1% DMSO or Compound 1 (10 μM) in 0.1% DMSO (FIG. 3). Growth was recorded after 48 h. TOP1, TOP2, and TOP3 overexpressing cells grew at approximately the same rate as cells carrying an empty vector (top panel). […] However, Compound 1 was toxic to cells overexpressing TOP2. This phenomenon is characteristic of TOP2 poisons that stabilize toxic Top2cc adducts.

[2] = tested on: Saccharomyces cerevisiae strain BY4741 overexpressing yeast TOP2; test: Yeast dilution growth on agar media, cells overexpressing TOP2; type: cell-based; conditions: Compound 1 10 μM in 0.1% DMSO, growth recorded after 48 h, FIG. 3
Description: as §1

[3] = tested on: yeast cells expressing native levels of Top2; test: Yeast culture growth rate, native levels of TOP2 (empty expression vector); type: cell-based; conditions: FIG. 4
Description: (§2) Yeast cultures overexpressing native TOP2 (TOP2) or an empty expression vector (empty) were exposed to increasing concentrations of Compound 1 (FIG. 4). […] This is an unusual property for a TOP2 poison, most or all of which are lethal at high concentrations.

[4] = tested on: Saccharomyces cerevisiae strain BY4741 overexpressing yeast TOP1; test: Yeast dilution growth on agar media, cells overexpressing TOP1; type: cell-based; conditions: Compound 1 10 μM in 0.1% DMSO, growth recorded after 48 h, FIG. 3
Description: as §1

[5] = tested on: Saccharomyces cerevisiae strain BY4741 overexpressing yeast TOP3; test: Yeast dilution growth on agar media, cells overexpressing TOP3; type: cell-based; conditions: Compound 1 10 μM in 0.1% DMSO, growth recorded after 48 h, FIG. 3
Description: as §1

[6] = tested on: yeast cells overexpressing TOP2; test: Yeast culture growth rate, TOP2 overexpressed from a plasmid vector; type: cell-based; conditions: increasing concentrations of Compound 1, FIG. 4
Description: as §2

[7] = tested on: Human HT1080 fibrosarcoma cells; test: HT1080 cell viability, alone and combined with doxorubicin, vinblastine or etoposide; type: cell-based; parameters: viability of HT1080 cells, compound alone: dose or concentration left out as unconfirmed
Description: Human HT1080 fibrosarcoma cells were exposed for 48 hrs to DMSO (vehicle control), 0.5 μM doxorubicin, 0.5 nM vinblastine, and/or Compound 1 at the indicated concentrations (FIGS. 6A-6C, respectively). Viable cells remaining on the plates were quantified after 48 hrs. […] (FIG. 6B) Compound 1 enhances doxorubicin toxicity at concentrations as low as 2.5 μM. 10 μM Compound 1 enhances doxorubicin cytotoxicity several fold. […] The vinblastine results are inconsistent with Compound 1 acting by inhibition of multidrug resistance pumps, which, when inhibited, increase the toxicity of multiple cytotoxic drugs including vinblastine. […] Average values and standard deviation of the means are plotted. P-values determined by student t-test are shown for doxorubicin enhancement (B). DMSO (A) and doxorubicin (B) data were based on the average of 6 biological replicates. Vinblastine data (C) was based on three biological replicates.

[8] = tested on: Noncancer MJT cells (primary foreskin fibroblasts); test: MJT noncancer cell viability with and without doxorubicin; type: cell-based, human
purified yeast Top2 = biological target: T2, purified yeast Top2 (Saccharomyces cerevisiae, UniProt P06786); test: Plasmid DNA (pUC18) cleavage by purified yeast Top2 (double strand breaks, linear form); type: biochemical; conditions: 10 μM etoposide or 1, 10 or 100 μM Compound 1, 150 ng purified yeast Top2, FIG. 5
T2 sequence (P06786 1-1428): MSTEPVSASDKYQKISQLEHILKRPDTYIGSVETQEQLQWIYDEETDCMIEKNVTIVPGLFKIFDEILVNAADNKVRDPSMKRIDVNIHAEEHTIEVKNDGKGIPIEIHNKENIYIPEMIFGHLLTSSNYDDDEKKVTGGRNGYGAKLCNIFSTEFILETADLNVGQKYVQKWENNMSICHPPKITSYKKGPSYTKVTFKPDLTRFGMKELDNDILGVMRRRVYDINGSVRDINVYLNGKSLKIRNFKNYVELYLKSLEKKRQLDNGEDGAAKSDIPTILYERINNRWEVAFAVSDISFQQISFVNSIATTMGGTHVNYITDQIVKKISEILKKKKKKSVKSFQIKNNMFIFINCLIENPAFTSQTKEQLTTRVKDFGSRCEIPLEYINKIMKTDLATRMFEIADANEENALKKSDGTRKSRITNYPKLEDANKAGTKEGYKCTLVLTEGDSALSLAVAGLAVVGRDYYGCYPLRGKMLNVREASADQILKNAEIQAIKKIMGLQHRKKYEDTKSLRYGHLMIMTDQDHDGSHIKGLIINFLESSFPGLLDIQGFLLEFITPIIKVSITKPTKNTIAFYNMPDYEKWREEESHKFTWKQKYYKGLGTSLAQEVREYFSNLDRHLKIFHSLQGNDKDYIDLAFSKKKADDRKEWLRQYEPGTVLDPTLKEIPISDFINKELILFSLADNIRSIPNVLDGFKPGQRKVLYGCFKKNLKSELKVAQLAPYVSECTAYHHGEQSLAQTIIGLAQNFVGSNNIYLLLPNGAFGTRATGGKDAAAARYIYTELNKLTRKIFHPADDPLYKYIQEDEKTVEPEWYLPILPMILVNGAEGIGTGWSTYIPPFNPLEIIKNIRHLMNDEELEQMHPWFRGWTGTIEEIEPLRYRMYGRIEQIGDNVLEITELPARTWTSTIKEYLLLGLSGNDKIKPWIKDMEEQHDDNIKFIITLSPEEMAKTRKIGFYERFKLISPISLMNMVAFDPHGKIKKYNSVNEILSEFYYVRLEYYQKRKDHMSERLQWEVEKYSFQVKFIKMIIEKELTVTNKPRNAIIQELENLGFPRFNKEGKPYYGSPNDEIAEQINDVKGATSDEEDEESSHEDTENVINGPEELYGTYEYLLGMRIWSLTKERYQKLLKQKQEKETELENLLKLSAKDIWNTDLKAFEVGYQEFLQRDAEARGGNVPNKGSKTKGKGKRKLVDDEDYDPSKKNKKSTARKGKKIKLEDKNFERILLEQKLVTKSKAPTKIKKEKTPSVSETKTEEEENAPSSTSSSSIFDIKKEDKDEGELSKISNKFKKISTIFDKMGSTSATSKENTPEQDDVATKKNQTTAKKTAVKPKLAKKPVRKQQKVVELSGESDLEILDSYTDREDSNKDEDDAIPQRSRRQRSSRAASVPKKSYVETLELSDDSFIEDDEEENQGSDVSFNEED
Description: Supercoiled (sc) plasmid DNA (pUC18) was exposed to 10 μM etoposide or 1, 10 or 100 μM Compound 1 in the presence and absence of 150 ng of purified yeast Top2 as described (Nitiss et al. (2012) Curr Protoc. Pharmacol. Chapter 3: Unit 3.3) (FIG. 5). TOP2 poisons induce Top2cc adducts containing double strand breaks. Double strand DNA breaks convert supercoiled (sc) pUC18 to a linear (lin) form.

| Compound | unwinding of plasmid DNA in presence of Top1 (intercalation) (puc118-based plasmid DNA) | inhibition of decatenation of kinetoplastid DNA by human Top2-α (Human Top2-α) | growth of cells carrying an empty vector on agar [1] | growth of cells overexpressing TOP2 on agar [2] | growth in cells expressing native levels of Top2 at high concentrations ([3]; concentrations as high as 100 μM) | growth rate in cells expressing native levels of Top2 ([3]; concentrations below 10 μM) | growth of cells overexpressing TOP1 on agar [4] | growth of cells overexpressing TOP3 on agar [5] | growth in cells overexpressing TOP2 from a plasmid vector [6] | enhancement of doxorubicin cytotoxicity ([7]; 10 μM Compound 1, 0.5 μM doxorubicin, 48 hrs, FIG. 6B) | viability of HT1080 cells, compound alone ([7]; 48 hrs, DMSO vehicle, FIG. 6A) | lowest concentration enhancing doxorubicin toxicity ([7]; 48 hrs, with 0.5 μM doxorubicin, FIG. 6B) | enhancement of HT1080 cell killing at multiple doxorubicin concentrations ([7]; various concentrations of doxorubicin and Compound 1, FIG. 6D) | enhancement of vinblastine toxicity ([7]; with 0.5 nM vinblastine, 48 hrs, FIG. 6C) | toxicity to MJT cells, compound alone ([8]; performed as in Example 6, FIG. 7) | enhancement of doxorubicin toxicity in MJT cells ([8]; various concentrations of doxorubicin with and without Compound 1, FIG. 7) | formation of the linear form of pUC18 (stable double strand breaks, Top2cc adducts) (purified yeast Top2) |
| --- | --- | --- | --- | --- | --- | --- | --- | --- | --- | --- | --- | --- | --- | --- | --- | --- | --- |
| COc1cccc2c1C(=O)c1c(O)c3c(c(O)c1C2=O)C[C@@](O)(C(=O)CO)C[C@@H]3O[C@H]1C[C@H](N)[C@H](O)[C@H](C)O1 [doxorubicin] | DNA is unwound |  |  |  |  |  |  |  |  |  |  |  |  |  |  |  |  |
| c1ccc2nc3c(nc2c1)[nH]c1ccccc13 [Compound 1, 6H-indolo[2,3-b]quinoxaline] | do not unwind the DNA | inhibits human Top2-α at Micromolar Concentrations; also recorded: inhibited by increasing concentrations | no effect on the growth | toxic | cells continue to thrive | partial dose-dependent inhibition of growth rates | no effect on the growth | no effect on the growth | almost completely arrests growth | several fold | no effect on the viability | 2.5 µM | dose-dependent enhancement | does not enhance vinblastine toxicity | not itself toxic | nor does it enhance the toxicity of doxorubicin | induced yeast Top2 to form the linear form of pUC18 |
| COc1cc([C@@H]2c3cc4c(cc3[C@@H](O[C@@H]3O[C@@H]5CO[C@@H](C)O[C@H]5[C@H](O)[C@H]3O)[C@H]3COC(=O)[C@H]23)OCO4)cc(OC)c1O [etoposide, reference compound] | do not unwind the DNA |  |  |  |  |  |  |  |  |  |  |  |  |  |  |  | induced yeast Top2 to form the linear form of pUC18 |
